According to patent publication EP0925064B1, “5-ANDROSTENE 3 beta,17alpha DIOL AS AN INHIBITOR OF TUMOR GROWTH” (LORIA, Roger M., priority 1996, dated 1997):

Assays:
[1] = test system: P388D1 cells; experiment: Growth of lymphoid neoplasm cells in the presence of RU486; assay type: cell-based; details: RU486 at 0.5 µM and 1.0 µM
Method: (§1) For cell proliferation assays, cell suspensions were prepared by trypsinization of cells from cultures prepared in accord with methods described above. Cell viability was determined by trypan blue exclusion. The cells were then seeded in flat-bottom 96-well microtiter plates at a density of 2X10^3 cells/well and were allowed to rest for 48 hours in order to adhere. Non-adherent dead cells were removed by aspiration. Cells were then grown in media without phenol red. Some of the media contained supplements as indicated above. The active agents or vehicle control were added to the media. The cells were then grown for six days. Media was changed on the samples every 48 hours. On day 6, cells were pulsed with 1 µCi[…] for the last 6 hours of incubation before harvesting onto glass filter using a HPD cell harvester (Cambridge Technology, Watertown, Massachusetts) and counted on a KLB scintillation counter.
Effect of αAED on growth of lymphoid neoplasm (P388D1 cells obtained from the American Type Culture Collection) in the presence of RU486 at concentration of 0.5 µM and 1.0 µM was studied in accord with the methods described above.

[2] = test system: ZR-75-1 cells; experiment: Cell count and viability by trypan blue exclusion; assay type: cell-based, human
Method: (§2) Cells were first seeded at initial density of 1x10^5 cells per ml in quadruplicates in 24 multi-well flat bottom plates (Costar). Cells were then allowed to adhere and grow in phenol red-free […] media supplemented with 10 % heat-inactivated fetal calf serum (FCS), 200 µM L-glutamine, 10 mM HEPES, 2.5 U/ml penicillin and 2.5 µg/ml streptomycin in 5% CO2 at 37°C. After 48 hours, four wells were sacrificed and counted to determine plating efficiency. In the remaining wells, medium was removed by aspiration and cells in each well were exposed to the media containing the specified steroid. The controls containing only medium or medium with vehicle were also prepared. In all samples, medium was changed every 48 hours. At the pre-established time-point. Cells were removed by trypsinization and washed. Cell number and viability were determined by trypan blue exclusion using a hemocytometer. Parallel cultures were also run to determine cell proliferation.
(§3) Initial tests were carried out to determine the optimal (maximal) dose of αAED required to inhibit growth of the ZR-75-1 cells in in vitro as determined by tritiated tymidine incorporation. […] To ensure that inhibition was not due to cytotoxicity, cell count and viability were assessed by trypan blue exclusion.

[3] = test system: ZR-75-1 cells; experiment: Cell proliferation assay (3H-thymidine incorporation, 6 days); assay type: cell-based, human; details: for cell proliferation (Example 1): six day period
Method: The ZR-75-1 cell line (passage 89) was obtained from the American Type Culture Collection (Rockville, Maryland). The cells were cultured in RPMI-1640 medium containing 10% heat-inactivated fetal calf serum, 200 µM L-glutamine, […], 1.5 U/ml penicillin, and 1.5 µg/ml streptomycin in 5% CO2 at 37°C. The cells were passaged twice weekly.
as §2, §1, §3
ZR-75-1 cells (2X10^3) were treated as described above over a six day period with differing concentrations of αAED or with vehicle-only cultures. The medium was changed every 48 hours. Cells were pulsed with ^3H-thymidine for the last six hours of incubation.

[4] = test system: RAW 264.7; experiment: Proliferation of macrophage myeloma cells; assay type: cell-based, murine
Method: as §1
Effects of αAED at doses of 50 ηM and 100 ηM doses on murine macrophage myeloma cells (RAW 264.7, obtained from the American Type Culture Collection) was studied.

Compound | growth of lymphoid neoplasm in the presence of RU486 (Example 8) [1] | cytotoxicity (cell count and viability) [2] | proliferation in the presence of estradiol (Example 3) ([3]; 1 ηM estradiol, higher doses of αAED, 6 day period) | cell proliferation (Example 1) ([3]; 6.25 ηM) | cell proliferation (Example 1) ([3]; 25 ηM) | cell proliferation (Example 1) ([3]; 50 ηM) | maximal dose of anti-proliferative effect ([3]; ZR-75-1 cells, 6 days) | growth of ZR-75-1 cells ([3]; concentration of 25 nM or greater) | proliferation of ZR-75-1 cells compared with the vehicle control ([3]; concentrations between 6.25 and 12.5 ηM (P<0.01)) | effect on the growth of ZR-75-1 cells compared to vehicle control ([3]; doses ranging from 3.13 ηM to 50 ηM, after 6 days) | proliferation of cells in the presence of RU486 (Example 5) ([3]; αAED with 0.5 µM RU486) | proliferation of cells in the presence of βAED (Example 2) ([3]; βAED constant at 2.5 ηM, all concentrations of αAED) | antiproliferative effects in the presence of Flutamide (Example 4) ([3]; ≥6.25 ηM αAED, with Flutamide, 6 day period) | proliferation of murine macrophage myeloma cells (Example 9) ([4]; 50 ηM) | proliferation of murine macrophage myeloma cells (Example 9) ([4]; 100 ηM) | antiproliferative effect on the growth of the ZR-75-1 cells ([3]; alone at 100 ηM)
C[C@]12CC[C@H]3[C@@H](CC=C4C[C@@H](O)CC[C@@]43C)[C@@H]1CC[C@H]2O [αAED, 5-androstene 3β,17α diol] | increased effectiveness over use of one agent | not toxic | suppressed proliferation | increasing proliferation | decreasing cell proliferation | marked decrease | 100 ηM | significantly inhibited the growth | stimulated proliferation | biphasic effect | synergistic action to decrease proliferation of cells | decreased proliferation | greatly enhanced | significant inhibition of proliferation | significant inhibition of proliferation | –
C[C@]12CC[C@H]3[C@@H](CC=C4C[C@@H](O)CC[C@@]43C)[C@@H]1CC[C@@H]2O [βAED, 5-androstene 3β,17β diol, reference compound] | – | – | – | – | – | – | – | – | – | – | – | – | – | – | – | did not have any antiproliferative effect
